Earlier results in US12071516B2, “Polymeric stabilizing formulations” (Nano Precision Medical, Inc., priority 2014, dated 2024).

water solubility: limited water solubility
SMILES: OCCN1CCN(CCCN2c3ccccc3Sc3ccc(C(F)(F)F)cc32)CC1 [Fluphenazine]
